Experimental data: ChEMBL document CHEMBL4152390, “Discovery of the First-in-Class Dual Histone Deacetylase-Proteasome Inhibitor” (J Med Chem, 2018)
pIC50: −log10 of the molar value.

Assays:
[1] = target: T1, Proteasome Macropain subunit MB1 (Homo sapiens, UniProt P28074); assay: Inhibition of chymotrypsin-like activity of 20S proteasome in human HL60 cells using Suc-LLVY aminoluciferin as substrate after 2 hrs by proteasome-Glo assay; assay type: cell-based
T1 sequence (P28074 whole entry): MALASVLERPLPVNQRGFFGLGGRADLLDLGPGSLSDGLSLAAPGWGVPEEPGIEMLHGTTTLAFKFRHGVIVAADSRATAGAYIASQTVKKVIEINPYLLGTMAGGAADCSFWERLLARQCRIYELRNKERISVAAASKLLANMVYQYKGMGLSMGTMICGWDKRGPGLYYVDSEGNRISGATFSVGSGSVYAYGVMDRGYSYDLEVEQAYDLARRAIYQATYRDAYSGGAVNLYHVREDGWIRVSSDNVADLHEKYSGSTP

[2] = target: T1, Proteasome Macropain subunit MB1; assay: Inhibition of chymotrypsin-like activity of 20S proteasome in imatinib-resistant human SUP-B15 cells using Suc-LLVY aminoluciferin as substrate after 2 hrs by proteasome-Glo assay; assay type: cell-based
[3] = Cytotoxicity against human RPMI18226 cells after 72 hrs by CellTiter-Glo luminescent cell viability assay; assay type: functional, cell-based; conditions: RPMI18226, 72 h
PBMC = assay: cells; assay type: ADME, cell-based; conditions: Homo sapiens, 72 h

pIC50 [1]: 6.59 | pIC50 [2]: 6.09
Structure (SMILES): C[C@H](NC(=O)[C@H](CC(=O)NCC(C)(C)C)NC(=O)c1ccc(C(=O)NO)cc1)C(=O)NCc1ccccc1
pIC50 [3]: 5.76 | pIC50 (PBMC): < 4.60
